Results published in publication PMC4503722, “Novel Phenotypic Outcomes Identified for a Public Collection of Approved Drugs from a Publicly Accessible Panel of Assays” (PLoS ONE, 2015).
Where two headings read alike, the source gives them in different places.

Columns and labels:
[1] = test system: endothelial tube formation in co-cultures of ECFCs and ADSCs treated with VEGF; assay: cells; assay type: cell-based, human
HeLa cells = assay: cells; assay type: cell-based;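 for Hela CellCycMod PI 4N summarized IC50: value tracks stimulation of 4N DNA content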
DLD-1 = assay: cells; assay type: cell-based
SW480 = assay: cells; assay type: cell-based; details: assay number 24; basal; read-out: Basal_Viability ATP SW480 summarized IC50
HCT116 = assay: cells; assay type: cell-based
[2] = test system: HCT116 cells treated with a GSK3β inhibitor; assay: cells; assay type: cell-based
Colo320 = assay: cells; assay type: cell-based
HT-29 = assay: cells; assay type: cell-based; details: assay number 28; basal; read-out: Basal_Viability ATP HT-29 summarized IC50
RKO = assay: cells; assay type: cell-based; details: assay number 29; basal; read-out: Basal_Viability ATP RKO summarized IC50
SNU-C1 = assay: cells; assay type: cell-based; details: assay number 30; basal; read-out: Basal_Viability ATP SNU-C1 summarized IC50
hp70S6K1 (RPS6KB1) = molecular target: T1, hp70S6K1 (RPS6KB1) (Homo sapiens, UniProt P23443); assay: Cerep LANCE kinase assay hp70S6K1 (S1 assay 31); assay type: biochemical
T1 construct: purchased Cerep (LANCE kinase assay platform, contract assay)

hJAK2 = molecular target: T2, hJAK2 (Homo sapiens, UniProt O60674); assay: Cerep LANCE kinase assay hJAK2 (S1 assay 33); assay type: biochemical
T2 construct: purchased Cerep (LANCE kinase assay platform, contract assay)

hGSK3b = molecular target: T3, hGSK3b (Homo sapiens, UniProt P49841); assay: Cerep LANCE kinase assay hGSK3b (S1 assay 34); assay type: biochemical
T3 construct: purchased Cerep (LANCE kinase assay platform, contract assay)

hFLT3 = molecular target: T4, hFLT3 (Homo sapiens, UniProt P36888); assay: Cerep LANCE kinase assay hFLT3 (S1 assay 35); assay type: biochemical
T4 construct: purchased Cerep (LANCE kinase assay platform, contract assay)

[3] = test system: ECFC/ADSC co-culture cell nuclei number; details: for IC50: read-out: VEGF_ADSC\ECFC Angio Hoechst NucArea summarized IC50
hKDR = molecular target: T5, hKDR (Homo sapiens, UniProt P35968); assay: Cerep LANCE kinase assay hKDR (S1 assay 32); assay type: biochemical; details: for hKDR LANCE IC50/EC50: assay number 32
T5 construct: purchased Cerep (LANCE kinase assay platform, contract assay)

[4] = test system: nuclear β-catenin in C2C12 cells; assay: cells; assay type: cell-based; details: Mus musculus, C2C12, read-out: Wnt Pathway
INS-1E cells = assay: cells; assay type: cell-based, rat; details: Rattus norvegicus, INS-1E, read-out: Insulin Secretion
NCI-H716 cells = assay: cells; assay type: cell-based, Human; details: Homo sapiens, NCI-H716, read-out: GLP 1 Secretion
[5] = assay number 14, 2N, read-out: Hela CellCycMod PI 2N summarized IC50
[6] = assay number 15, S phase, read-out: Hela CellCycMod PI S Phase summarized IC50
[7] = assay number 16, 4N, read-out: Hela CellCycMod PI 4N summarized IC50
[8] = assay number 17, MI, read-out: Hela CellCycMod PI MI summarized IC50
[9] = assay number 18, cell number, read-out: Hela CellCycMod PI Cell Number summarized IC50
[10] = assay number 23, basal, read-out: Basal_Viability ATP DLD-1 summarized IC50
[11] = assay number 25, basal, read-out: Basal_Viability ATP HCT116 summarized IC50
[12] = assay number 26, GSK3b inhibitor pretreated, read-out: GSK3b inh pretreated_Viability ATP HCT116 summarized IC50
[13] = assay number 27, basal, read-out: Basal_Viability ATP Colo 320 summarized IC50
[14] = assay number 31, read-out: hp70S6K1 LANCE summarized IC50
[15] = assay number 33, read-out: hJAK2 LANCE summarized IC50
[16] = assay number 34, read-out: hGSK3b LANCE summarized IC50
[17] = assay number 35, read-out: hFLT3 LANCE summarized IC50
[18] = kinase assay, read-out: p70S6K1

T1 sequence (P23443 whole entry): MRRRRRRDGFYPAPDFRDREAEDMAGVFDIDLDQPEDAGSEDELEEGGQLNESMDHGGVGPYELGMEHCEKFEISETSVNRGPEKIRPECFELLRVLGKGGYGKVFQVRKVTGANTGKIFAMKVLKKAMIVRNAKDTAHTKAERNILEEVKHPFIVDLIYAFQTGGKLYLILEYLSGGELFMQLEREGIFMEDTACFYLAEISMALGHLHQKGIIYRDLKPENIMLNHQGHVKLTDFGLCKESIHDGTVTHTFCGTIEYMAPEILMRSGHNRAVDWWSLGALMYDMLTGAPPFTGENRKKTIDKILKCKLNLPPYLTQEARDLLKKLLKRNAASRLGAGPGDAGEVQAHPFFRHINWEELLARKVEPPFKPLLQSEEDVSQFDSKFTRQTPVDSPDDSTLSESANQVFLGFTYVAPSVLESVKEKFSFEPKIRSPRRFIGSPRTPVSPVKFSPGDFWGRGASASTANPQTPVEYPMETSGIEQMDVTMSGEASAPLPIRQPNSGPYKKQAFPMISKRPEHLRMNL
T4 sequence (P36888 27-993): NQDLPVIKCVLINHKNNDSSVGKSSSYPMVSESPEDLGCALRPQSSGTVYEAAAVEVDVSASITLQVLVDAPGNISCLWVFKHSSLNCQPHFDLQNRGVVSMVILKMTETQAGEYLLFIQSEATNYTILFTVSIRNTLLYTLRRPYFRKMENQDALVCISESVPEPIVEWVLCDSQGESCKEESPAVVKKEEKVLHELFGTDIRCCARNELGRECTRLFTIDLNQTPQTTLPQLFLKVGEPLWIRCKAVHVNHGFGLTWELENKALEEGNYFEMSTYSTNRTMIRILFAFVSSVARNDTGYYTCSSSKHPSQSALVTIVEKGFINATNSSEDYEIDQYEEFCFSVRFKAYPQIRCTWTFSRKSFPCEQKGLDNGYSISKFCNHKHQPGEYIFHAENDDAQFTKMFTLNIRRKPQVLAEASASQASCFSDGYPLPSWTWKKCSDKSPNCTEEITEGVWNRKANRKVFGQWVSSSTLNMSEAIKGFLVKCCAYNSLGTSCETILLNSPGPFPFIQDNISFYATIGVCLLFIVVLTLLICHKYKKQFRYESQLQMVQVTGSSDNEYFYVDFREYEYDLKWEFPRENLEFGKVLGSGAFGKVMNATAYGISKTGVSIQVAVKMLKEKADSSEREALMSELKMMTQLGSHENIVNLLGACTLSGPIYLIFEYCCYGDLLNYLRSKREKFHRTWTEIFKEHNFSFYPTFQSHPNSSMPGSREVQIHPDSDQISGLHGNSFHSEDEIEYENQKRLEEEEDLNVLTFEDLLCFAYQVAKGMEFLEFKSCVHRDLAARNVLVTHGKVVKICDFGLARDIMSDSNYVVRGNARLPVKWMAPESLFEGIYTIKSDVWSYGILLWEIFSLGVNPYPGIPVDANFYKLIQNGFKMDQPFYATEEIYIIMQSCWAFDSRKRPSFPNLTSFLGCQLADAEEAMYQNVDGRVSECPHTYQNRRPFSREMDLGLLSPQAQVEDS
T2 sequence (O60674 whole entry): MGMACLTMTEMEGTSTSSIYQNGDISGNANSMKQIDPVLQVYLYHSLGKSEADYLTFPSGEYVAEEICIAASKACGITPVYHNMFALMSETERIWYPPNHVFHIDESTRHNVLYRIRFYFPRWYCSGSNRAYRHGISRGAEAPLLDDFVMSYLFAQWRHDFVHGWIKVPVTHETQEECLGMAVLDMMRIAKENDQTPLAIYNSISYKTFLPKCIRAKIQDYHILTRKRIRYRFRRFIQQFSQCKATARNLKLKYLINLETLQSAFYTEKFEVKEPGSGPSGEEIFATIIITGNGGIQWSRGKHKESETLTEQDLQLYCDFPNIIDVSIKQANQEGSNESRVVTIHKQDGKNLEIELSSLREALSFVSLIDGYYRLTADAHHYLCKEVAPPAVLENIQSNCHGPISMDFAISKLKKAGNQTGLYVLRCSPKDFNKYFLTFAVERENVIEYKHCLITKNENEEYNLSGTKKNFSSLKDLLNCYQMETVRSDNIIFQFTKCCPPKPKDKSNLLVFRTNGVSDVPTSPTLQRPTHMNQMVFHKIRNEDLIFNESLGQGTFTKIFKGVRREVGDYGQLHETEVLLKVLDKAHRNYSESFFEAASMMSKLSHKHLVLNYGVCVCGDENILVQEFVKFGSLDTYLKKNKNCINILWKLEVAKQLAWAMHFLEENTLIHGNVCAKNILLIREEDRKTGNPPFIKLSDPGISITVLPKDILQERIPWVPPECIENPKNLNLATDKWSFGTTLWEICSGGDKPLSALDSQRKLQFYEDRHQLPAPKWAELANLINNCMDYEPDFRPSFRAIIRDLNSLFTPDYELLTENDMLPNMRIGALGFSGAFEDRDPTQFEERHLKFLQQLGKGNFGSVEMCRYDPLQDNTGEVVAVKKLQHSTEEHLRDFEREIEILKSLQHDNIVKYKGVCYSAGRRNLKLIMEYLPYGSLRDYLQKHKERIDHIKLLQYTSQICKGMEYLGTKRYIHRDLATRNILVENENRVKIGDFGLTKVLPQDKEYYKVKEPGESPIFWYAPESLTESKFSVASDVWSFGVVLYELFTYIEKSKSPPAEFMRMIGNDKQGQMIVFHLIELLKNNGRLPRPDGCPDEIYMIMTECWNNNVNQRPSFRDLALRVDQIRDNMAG
T5 sequence (P35968 20-1356): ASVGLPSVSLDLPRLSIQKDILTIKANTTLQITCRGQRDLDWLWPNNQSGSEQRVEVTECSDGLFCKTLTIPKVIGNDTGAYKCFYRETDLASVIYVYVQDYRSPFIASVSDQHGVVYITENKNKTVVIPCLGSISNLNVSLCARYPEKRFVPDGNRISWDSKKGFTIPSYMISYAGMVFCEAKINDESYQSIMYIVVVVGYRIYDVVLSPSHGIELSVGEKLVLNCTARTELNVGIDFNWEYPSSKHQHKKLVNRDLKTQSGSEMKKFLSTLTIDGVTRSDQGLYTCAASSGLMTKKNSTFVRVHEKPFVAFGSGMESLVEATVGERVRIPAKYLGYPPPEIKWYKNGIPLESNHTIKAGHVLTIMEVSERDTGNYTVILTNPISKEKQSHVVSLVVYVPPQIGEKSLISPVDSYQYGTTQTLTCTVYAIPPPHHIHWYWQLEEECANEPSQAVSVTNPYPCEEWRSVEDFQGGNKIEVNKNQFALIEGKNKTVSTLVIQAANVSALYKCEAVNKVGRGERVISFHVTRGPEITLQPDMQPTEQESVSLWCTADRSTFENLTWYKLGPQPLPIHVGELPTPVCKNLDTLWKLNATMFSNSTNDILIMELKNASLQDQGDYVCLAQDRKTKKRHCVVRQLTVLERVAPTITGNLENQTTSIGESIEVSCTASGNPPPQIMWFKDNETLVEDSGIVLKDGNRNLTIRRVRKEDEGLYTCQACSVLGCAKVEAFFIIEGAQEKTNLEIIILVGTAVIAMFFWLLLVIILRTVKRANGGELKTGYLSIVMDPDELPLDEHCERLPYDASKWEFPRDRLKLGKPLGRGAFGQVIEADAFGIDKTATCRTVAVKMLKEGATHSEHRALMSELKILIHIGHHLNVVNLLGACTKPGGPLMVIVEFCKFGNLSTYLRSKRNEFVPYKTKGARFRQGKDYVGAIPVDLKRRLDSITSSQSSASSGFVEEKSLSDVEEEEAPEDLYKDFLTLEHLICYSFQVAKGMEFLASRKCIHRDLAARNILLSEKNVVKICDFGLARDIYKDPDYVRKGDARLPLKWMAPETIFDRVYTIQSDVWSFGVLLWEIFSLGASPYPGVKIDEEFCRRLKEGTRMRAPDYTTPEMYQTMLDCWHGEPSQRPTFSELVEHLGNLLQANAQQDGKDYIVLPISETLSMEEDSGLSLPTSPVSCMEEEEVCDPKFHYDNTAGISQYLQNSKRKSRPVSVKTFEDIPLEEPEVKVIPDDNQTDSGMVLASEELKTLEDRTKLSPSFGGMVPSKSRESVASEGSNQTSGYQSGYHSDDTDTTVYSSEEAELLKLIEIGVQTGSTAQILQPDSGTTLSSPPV
T3 sequence (P49841 whole entry): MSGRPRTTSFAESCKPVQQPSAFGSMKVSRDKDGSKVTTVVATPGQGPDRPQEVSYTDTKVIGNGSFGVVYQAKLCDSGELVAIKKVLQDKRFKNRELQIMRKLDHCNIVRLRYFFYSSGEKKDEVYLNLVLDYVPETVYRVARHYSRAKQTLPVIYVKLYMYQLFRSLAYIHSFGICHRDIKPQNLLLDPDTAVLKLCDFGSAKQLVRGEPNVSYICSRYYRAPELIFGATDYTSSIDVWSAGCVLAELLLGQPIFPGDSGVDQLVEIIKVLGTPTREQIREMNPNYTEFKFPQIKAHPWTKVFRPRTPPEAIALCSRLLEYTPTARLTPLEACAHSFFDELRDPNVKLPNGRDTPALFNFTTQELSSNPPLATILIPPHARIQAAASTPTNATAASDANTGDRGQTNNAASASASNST

SMILES	IC50 (HeLa cells; [5])	IC50 (HeLa cells; [6])	IC50 (HeLa cells; [7])	IC50 (HeLa cells; [8])	IC50 (HeLa cells; [9])	IC50 (DLD-1; [10])	IC50 (SW480)	IC50 (HCT116; [11])	IC50 [2, 12]	IC50 (Colo320; [13])	IC50 (HT-29)	IC50 (RKO)	IC50 (SNU-C1)	IC50 (hp70S6K1 (RPS6KB1); [14])	IC50 (hJAK2; [15])	IC50 (hGSK3b; [16])	IC50 (hFLT3; [17])	IC50 [3]	VEGF_ADSC\ECFC Angio CD31 TubeArea IC50/EC50 [1]	Hela CellCycMod PI 2N IC50/EC50 (HeLa cells; assay number 14, 2N)	also measured
Oc1c(Cl)cc(Cl)cc1Sc1cc(Cl)cc(Cl)c1O [NCGC00018163-10]	> 10000 nM	> 10000 nM	> 10000 nM	> 10000 nM	> 10000 nM	1 nM	1 nM	1 nM	1 nM	15 nM	996 nM	1 nM	8.67 nM	> 20000 nM	> 20000 nM	6570 nM	> 20000 nM	> 10000 nM	–	–	IC50 ([1]; read-out: VEGF_ADSC\ECFC Angio CD31 TubeArea summarized IC50): 1790 nM
CCC(C)n1ncn(-c2ccc(N3CCN(c4ccc(OC[C@H]5CO[C@](Cn6cncn6)(c6ccc(Cl)cc6Cl)O5)cc4)CC3)cc2)c1=O (some centres unmarked) [NCGC00274068-01]	–	–	–	–	–	–	–	–	–	–	–	–	–	–	–	–	–	–	1548.8 nM	> 10000 nM	Hela CellCycMod PI 4N IC50/EC50 (HeLa cells; assay number 16, 4N): > 10000 nM; Hela CellCycMod PI MI IC50/EC50 (HeLa cells; assay number 17, MI): > 10000 nM; Hela CellCycMod PI Cell Number IC50/EC50 (HeLa cells; assay number 18, cell number): > 10000 nM; hp70S6K1 LANCE IC50/EC50 (hp70S6K1 (RPS6KB1); assay number 31): > 20000 nM; hKDR LANCE IC50/EC50 (hKDR): > 20000 nM; hJAK2 LANCE IC50/EC50 (hJAK2; assay number 33): > 20000 nM; hGSK3b LANCE IC50/EC50 (hGSK3b; assay number 34): > 20000 nM; hFLT3 LANCE IC50/EC50 (hFLT3; assay number 35): > 20000 nM; VEGF_ADSC\ECFC Angio Hoechst NucArea IC50/EC50 [3]: > 10000 nM
O=C(CCCCCCC(=O)Nc1ccccc1)NO [vorinostat]	–	–	–	–	–	–	–	–	–	–	–	–	–	–	–	–	–	–	–	–	IC50 (hp70S6K1 (RPS6KB1); [18]): > 20000 nM; IC50 (hKDR): > 20000 nM; IC50 (hJAK2; kinase assay, read-out: JAK2): > 20000 nM; IC50 (hGSK3b; kinase assay, read-out: GSK3b): > 20000 nM; IC50 (hFLT3; kinase assay, read-out: FLT3): > 20000 nM
O=C(Nc1ccc([N+](=O)[O-])cc1Cl)c1cc(Cl)ccc1O [Niclosamide]	–	–	–	–	–	–	–	–	–	–	–	–	–	–	–	–	–	–	–	–	IC50 ([1]; Homo sapiens, read-out: Anti-Angiogenesis): 112 nM; EC50 [4]: 1570 nM; EC50 (INS-1E cells): > 10000 nM; EC50 (NCI-H716 cells): > 10000 nM; EC50 (HeLa cells; Homo sapiens, HeLa, read-out: CellCycle G2/M): > 10000 nM; IC50 (DLD-1; Homo sapiens, DLD-1, read-out: Basal_Viability ATP DLD-1): 3.49 nM; IC50 (HCT116; Homo sapiens, HCT-116, read-out: Basal_Viability ATP HCT116): 1.44 nM; IC50 ([2]; Homo sapiens, HCT-116, read-out: GSK3b inh pretreated_Viability ATP HCT116): 2.95 nM; IC50 (Colo320; Homo sapiens, COLO 320, read-out: Basal_Viability ATP Colo 320): 8.26 nM; IC50 (hp70S6K1 (RPS6KB1); [18]): > 20000 nM; IC50 (hKDR): > 20000 nM; IC50 (hGSK3b; kinase assay, read-out: GSK3b): > 20000 nM; IC50 (hFLT3; kinase assay, read-out: FLT3): > 20000 nM
C[C@@H]1C[C@@H]([C@H](O)CC2CC(=O)NC(=O)C2)C(=O)[C@@H](C)C1 [NCGC00169964-05]	–	–	–	–	–	–	–	–	–	–	–	–	–	–	–	–	–	–	1148.6 nM	> 10000 nM	Hela CellCycMod PI 4N IC50/EC50 (HeLa cells; assay number 16, 4N): > 10000 nM; Hela CellCycMod PI MI IC50/EC50 (HeLa cells; assay number 17, MI): > 10000 nM; Hela CellCycMod PI Cell Number IC50/EC50 (HeLa cells; assay number 18, cell number): 542.1 nM; hp70S6K1 LANCE IC50/EC50 (hp70S6K1 (RPS6KB1); assay number 31): > 20000 nM; hKDR LANCE IC50/EC50 (hKDR): > 20000 nM; hJAK2 LANCE IC50/EC50 (hJAK2; assay number 33): > 20000 nM; hGSK3b LANCE IC50/EC50 (hGSK3b; assay number 34): > 20000 nM; hFLT3 LANCE IC50/EC50 (hFLT3; assay number 35): > 20000 nM; VEGF_ADSC\ECFC Angio Hoechst NucArea IC50/EC50 [3]: > 10000 nM
CCCCCCCCCCCCCCCC[n+]1ccccc1 [NCGC00091023-06]	1250 nM	> 10000 nM	> 10000 nM	515 nM	404 nM	1930 nM	1610 nM	1190 nM	2290 nM	1640 nM	2290 nM	1270 nM	934 nM	> 20000 nM	> 20000 nM	> 20000 nM	> 20000 nM	3010 nM	–	–	–
